Measurements published in patent US5492906A, “Derivatives of thieno-triazolo-diazepine and therapeutic compositions containing them” (Societe de Conseils de Recherches et d'Applications …, priority 1989, dated 1996).

Legend:
[1] = system: platelet agregation induced by PAF; assay: Inhibition of platelet agregation induced by PAF; format: cell-based, New Zealand rabbits; details: Oryctolagus cuniculus, New Zealand rabbit platelets, agregometer at 57° C., Table I
Description: 1) Inhibition of platelet agregation induced by PAF
This experimentation was conducted according to the method of R. KINLOUGH. RATHBONE, J. P. CAZENAVE, M. PACKHAM and F. MUSTARD, Lab. Invest. 48, 98, 1980. In this test, New Zealand rabbits were used (male New Zealand rabbits of an average weight of 5 kg).
The determinations are made on a chrono-log Coultronics agregometer, at […] coupled with a graphic recorder; the results of these determinations (in molecular concentration) are reported on the table I on the central column.

benzodiazepine receptors = assay: Inhibition of the binding to benzodiazepine receptors (rat brains); details: rat brains incubated 1 h 30 at 4° C.; 3H-RO-15-4788 and 3H-RO-5-4864 as tracers; Table I; read-out: BDZ receptors (inhibition of the binding to benzodiazepine receptors)
Description: 2) Inhibition of the binding to benzodiazepine receptors
The interest of the previous experimentation depends on the results obtained in this experimentation: as a compound of the invention has a benzodiazepine like structure, it is important to check whether the specific benzodiazepine activity would not appear at the dose where platelet agregation was inhibited.
Therefore, this experimentation has been conducted according to the method of MOHLER H. and RICHARD J. G. Agonist and antagonist benzodiazepine receptor intereaction in vitro, Nature, vol. 294, 763°-765, 1981.
This experimentation was conducted on rat brains incubated 1 h 30 at 4° C. using ^3 H-RO-15-4788 and ^3 H-RO-5-4864 (NEN) as tracers and […] and RO-5-4864 as reference antagonists.
The results in molecular concentration are reported in the table I, on the right hand column.

[2] = system: bronchospasm induced by the PAF; assay: Action on the bronchospasm induced by the PAF in anaesthetized guinea-pigs; format: in vivo, guinea-pig; details: male Hartley guinea-pigs, oral, 1 hour before PAF i.v.; for Percentage of action: change versus controls; for Percentage of bronchoconstriction: controls 79. ± 5.55, dose not given
Description: 3) Action on the bronchospasm induced by the PAF
The PAF intravenous injection in anaesthetized guinea-pigs induces a bronchoconstriction with a leucopeny and a thrombocytopeny, according to the method described in S. DESQUAND, C. TOUVAY, J. RANDON, V. LAGENTE, B. VILAIN, I. MARIDONNEAU-PARINI, A. ETIENNE, J. LEFORT, P. BRAQUET and B. VARGAFTIG. Interference of BN 52021 (Ginkolide B) with the bronchopulmonary effects of PAF-acether in the guinea-pig. Eur. J. Pharmacol. 127: 83-95, 1986.
Male Hartley guinea-pigs (400-450 g) (Charles River) anaesthetized with urethane (2 g/kg IP), then are thracheotomized and submitted to a forced respiration with a breathing pump:70-80 strokes/mn, 1 ml of air/ 100 g per stroke. A catheter is introduced in the jugular vein for the injections, an other is introduced in the carotic artery for blood takings. The initial resistance is kept constant under the pressure of 10 cm of water in accordance with the Konzett and Rossler method and the air in excess is measured with a transducor for bronchospasm UGO BASILE together with an enregistror GEMINI. The guinea-pigs had received an IV injection of pancuronium (Pavulon) to inhibit their spontaneous respiration.
The compound according to the invention and the reference compound WEB 2086 (see the above cited Boehringer patent) have been prepared as suspension in gummy water and administrated orally 1 hour before the stimulation by the PAF.
The bronchoconstriction is appreciated by the calculation of the percentage of bronchoconstriction [formula] wherein A stands for induced bronchoconstriction in mm and B stands for maximum bronchoconstriction in mm.

Toxicity on the mice = details: mouse, in vivo, IP route

| Compound | IC50 [1] | IC50 (benzodiazepine receptors) | Percentage of action [2] | Percentage of bronchoconstriction [2] | LD50 (Toxicity on the mice) |
| --- | --- | --- | --- | --- | --- |
| Cc1nnc2n1-c1sc3c(c1C(c1ccccc1Cl)=NC2)CCN(C(=S)NC(C)C)C3 [Example 1, 6-(2-chlorophenyl)-9-isopropylthiocarbamoyl-7,8,9,10-tetrahydro-1-methyl4H-pyrido[4',3':4,5]thieno[3,2-f]1,2,4-triazolo[4,3-a]1,4-diazepine] | 32.8 nM | 7000 nM | -70.4% | 23.4% | – |
| Cc1nnc2n1-c1sc3c(c1C(c1ccccc1Cl)=NC2)CCN(C(=O)NC(C)(C)C)C3 [Example 3, 6-(2-chlorophenyl)-9-tertbutylcarbamoyl-7,8,9,10-tetra-hydro-1-methyl4H-pyrido[4',3':4,5]thieno[3,2-f]1,2,4-triazolo [4,3-a]1,4-diazepine] | 17.1 nM | 430 nM | -63.7% | 28.7% | – |
| CCCCCCCCCCCCCCCCNC(=S)N1CCc2c(sc3c2C(c2ccccc2Cl)=NCc2nnc(C)n2-3)C1 [Example 5, 6-(2-chlorophenyl)-9-hexadecylthiocarbamoyl-7,8,9,10-tetrahydro-1-methyl4H-pyrido[4',3':4,5]thieno [3,2-f]1,2,4-triazolo [4,3-a]1,4-diazepine] | 297 nM | 63000 nM | -61.6% | 30.3% | – |
| COc1ccc(NC(=S)N2CCc3c(sc4c3C(c3ccccc3Cl)=NCc3nnc(C)n3-4)C2)cc1 [Example 7, 6-(2-chlorophenyl)-9-(4-methoxy)phenylthiocarbamoyl-7,8,9,10-tetrahydro-1-methyl4H-pyrido[4',3':4,5]thieno[3,2-f]1,2,4-triazolo[4,3-a]1,4-diazepine] | 301 nM | 2000 nM | -83.5% | 13 ± 4.39% | – |
| COc1cc(NC(=O)N2CCc3c(sc4c3C(c3ccccc3Cl)=NCc3nnc(C)n3-4)C2)cc(OC)c1OC [Example 8, 6-(2-chlorophenyl)-9-(3,4,5-trimethoxy)phenylcarbamoyl-7,8,9,10-tetrahydro-1-methyl 4H-pyrido[4',3':4,5]thieno [3,2-f]1,2,4-triazolo [4,3-a]1,4-diazepine] | 11.5 nM | 1500 nM | -79.5% | 16.2% | – |
| Cc1nnc2n1-c1sc3c(c1C(c1ccccc1Cl)=NC2)CCN(C(=O)Nc1ccc(C(C)(C)C)cc1)C3 [Example 10, 6-(2-chlorophenyl)-9-(4-tertbutyl)phenylcarbamoyl-7,8,9,10-tetrahydro-1-methyl 4H-pyrido[4',3':4,5]thieno [3,2-f]1,2,4-triazolo[4,3-a]1,4-diazepine] | 8.8 nM | 5250 nM | -66.2% | 26.7% | 400 to 1000 mg/kg |
| Cc1nnc2n1-c1sc3c(c1C(c1ccccc1Cl)=NC2)CCN(C(=O)Nc1ccc(C(F)(F)F)cc1)C3 [Example 14, 6-(2-chlorophenyl)-9-(4-trifluoromethyl)phenylcarbamoyl-7,8,9,10-tetrahydro-1-methyl 4H-pyrido[4',3':4,5]thieno[3,2-f]1,2,4-triazolo[4,3-a]1,4-diazepine] | 150 nM | 70500 nM | -38.5% | 48.6% | – |
| Cc1nnc2n1-c1sc3c(c1C(c1ccccc1Cl)=NC2)CCN(C(=O)Nc1cccc(Cl)c1Cl)C3 [Example 17, 6-(2-chlorophenyl)-9-(2,3-dichloro)phenylcarbamoyl-7,8,9,10-tetrahydro-1-methyl 4H-pyrido[4',3':4,5]thieno[3,2-f]1,2,4-triazolo[4,3-a]1,4-diazepine] | 55 nM | 920 nM | – | – | 400 to 1000 mg/kg |
| Cc1nnc2n1-c1sc3c(c1C(c1ccccc1Cl)=NC2)CCN(C(=O)Nc1ccc(Oc2ccccc2)cc1)C3 [Example 18, 6-(2-chlorophenyl)-9-(4-phenoxy)phenylcarbamoyl-7,8,9,10-tetrahydro-1-methyl 4H-pyrido[4',3':4,5]thieno[3,2-f]1,2,4-triazolo[4,3-a]1,4-diazepine] | 33 nM | 860 nM | -81.8% | 14.1% | 400 to 1000 mg/kg |
| Cc1nnc2n1-c1sc3c(c1C(c1ccccc1Cl)=NC2)CCN(C(=S)Nc1ccc(C(C)(C)C)cc1C(C)(C)C)C3 [Example 22, 6-(2-chlorophenyl)-9-(2,4-diterbutyl)phenylthiocarbamoyl-7,8,9,10-tetrahydro-1-methyl-4H-pyrido[4',3':4,5]thieno[3,2-f]1,2,4-triazolo[4,3-a]1,4-diazepine] | 366 nM | 630 nM | -67.7% | 25.5% | – |
| Cc1nnc2n1-c1sc3c(c1C(c1ccccc1Cl)=NC2)CCN(C(=S)NCc1ccco1)C3 [Example 24, 6-(2-chlorophenyl)-9-(2-furfuryl)thiocarbamoyl-7,8,9,10-tetrahydro-1-methyl-4H-pyrido[4',3':4,5]thieno[3,2-f]1,2,4-triazolo[4,3-a]1,4-diazepine] | 48 nM | 650 nM | -57.9% | 33.3% | – |
| Cc1nnc2n1-c1sc3c(c1C(c1ccccc1Cl)=NC2)CCN(C(=S)NS(=O)(=O)c1ccccc1)C3 [Example 30, 6-(2-chlorophenyl)-9-(phenylsulfonyl)thiocarbamoyl-7,8,9,10-tetrahydro-1-methyl-4H-pyrido[4',3':4,5]thieno[3,2-f]1,2,4-triazolo[4,3-a]1,4-diazepine] | 11 nM | 630 nM | -52.9% | 37.2% | – |
| Cc1nnc2n1-c1sc3c(c1C(c1ccccc1Cl)=NC2)CCN(C(=S)NS(=O)(=O)c1ccc[nH]1)C3 [Example 33, 6-(2-chlorophenyl)-9-(2-pyrrolylsulfonyl)thiocarbamoyl7,8,9,10-tetrahydro-1-methyl-4H-pyrido[4',3':4,5]thieno[3,2-f]1,2,4-triazolo[4,3-a]1,4-diazepine] | 205 nM | 9100 nM | -71.7% | 22.4% | 400 to 1000 mg/kg |
| Cc1nnc2n1-c1sc(CCC(=O)N3CCOCC3)cc1C(c1ccccc1Cl)=NC2 [WEB 2086, reference compound] | – | – | -68.0% | 25.3% | – |
